# System: MCF7 cells
# Assay: ASNS and CHOP mRNA by RT-PCR as readout for amino acid deprivation
# Type: cell-based, human
# Experimental: FIGS. 6A to 6C. Effects of SLC6A14 blockade with α-MT in breast cancer cells. In FIG. 6A, MCF10A (a non-malignant mammary epithelial cell line), MCF7 (an ER-positive breast cancer cell line), and MB231 (an ER-negative breast cancer cell line) cells were treated with or without 2.5 mM α-MT for 24, 48, or 72 h and then used for analysis of asparagine synthetase (ASNS) and CHOP mRNA levels. In FIG. 6B, MCF7, MB231 and MCF10A cells were treated with or without 2.5 mM α-MT for 48 h and then used for immunocytochemical analysis of the constitutively expressed LC-3. In FIG. 6C, MCF7 cells were treated with (“b” and “c”) or without (“a”) α-MT (2.5 mM) for 48 h and then used for electron microscopy. Arrows indicate sequestration of cytoplasm and organelles in pre-autophagosomes and autophagosome, and the asterisk indicates condensed chromatin. N, nucleus. FIGS. 8A and 8B. Influence of α-MT on ASNS and CHOP mRNA levels in control MCF7 cells and in MCF7 cells with shRNA-induced silencing of SLC6A14. In FIG. 8A, five different SLC6A14-specific shRNAs were tested in MCF7 cells using a lentivirus-based system to monitor their efficacy to silence SLC6A14. SLC6A14 mRNA levels were measured by RT-PCR with GAPDH as an internal control. c, control. In FIG. 8B, SLC6A14 was silenced in MCF7 cells with shRNA-4 using a lentivirus-based system and then treated without or with α-MT (2.5 mM, 48 h). RNA isolated from the cells was then used for RT-PCR to monitor the levels of asparagine synthetase (ASNS) and CHOP mRNAs. FIG. 11. Estrogen-dependent suppression of the efficacy of α-MT to induce ASNS and CHOP expression in MCF7 cells. MCF7 cells were cultured in a phenol red-free medium in the absence or presence of estradiol (E2, 10 nM) for 24 h and then treated without or with α-MT (2.5 mM, 24 h). The cells were then used for analysis of SLC6A14, asparagine synthetase (ASNS), and CHOP mRNA levels by RT-PCR. Hypoxanthine/guanine phosphoribosyltransferase-1 (HPRT1) mRNA levels were used as an internal control. RT-PCR. Total RNA was isolated using TRIZOL™ (Invitrogen). 2 μg of RNA was reverse transcribed using the GeneAmp PCR System (Applied Biosystems, Branchburg, N.J.). PCR reaction was performed under optimal conditions specific for each of the primer pairs. GAPDH (glyceraldehyde-3-phosphate dehydrogenase) or HPRT1 (hypoxanthine/guanine phosphoribosyl transferase-1) were used as internal controls. PCR products were size-fractionated on agarose gel, stained with ethidium bromide and imaged using Alpha Imager (Santa Clara, Calif.). Densitometry was performed on PCR bands and normalized to the internal control. Normalized values were used to compare mRNA levels of target genes. Primers used for PCR were as follows.
structure (smiles),measurement,setting,value
"CC(N)(Cc1c[nH]c2ccccc12)C(=O)O (racemic) [α-MT, α-methyl-DL-tryptophan]",levels of asparagine synthetase mRNA and CHOP mRNA,"MCF7, α-MT 2.5 mM, 24, 48 or 72 h",increased
same,α-MT-induced increase of asparagine synthetase and CHOP expression,"MCF7 cells transfected with vector carrying shRNA #4 (SLC6A14 silenced), α-MT 2.5 mM, 48 h",markedly attenuated
same,magnitude of α-MT-induced asparagine synthetase and CHOP expression,"MCF7 cells treated with estradiol 10 nM, phenol red-free medium, α-MT 2.5 mM, 24 h",significantly reduced
same,expression levels of asparagine synthetase and CHOP,"MCF7 control cells transfected with empty vector, α-MT 2.5 mM, 48 h",increased
same,expression of asparagine synthetase and CHOP,"MCF7 control cells, phenol red-free medium, absence of estradiol, α-MT 2.5 mM, 24 h",induced the expression
